Reference: patent publication US6906205B2, “Spiro and dispiro 1,2,4-trioxolane antimalarials” (Medicines for Malaria Venture MMV, priority 2002, dated 2005)
In brackets after ≈: the same amount, converted by molar mass.

Key:
[1] = tested on: P. berghei ANKA strain; assay: treatment: 3x3 mg/kg and 3x1 mg/kg po divided doses in infected mice; assay type: in vivo, Plasmodium berghei; conditions: for Activity (%) p.o. SSV: percent reduction of parasitemia day 4; for activity (percent reduction of parasitemia): 3×1 mg/kg po on days 1, 2, 3 post-infection; for activity (percent reduction of parasitemia) / infected mice cured: SSV; for infected mice cured: 3×3 mg/kg po on days 1, 2, 3 post-infection
Experimental: Moro NMRI male mice (Fü Albino specific pathogen free) weighing 18±2 g were infected intravenously (i.v.) with 2×10^7 P. berghei ANKA strain-infected erythrocytes from donor mice on day 0 of the experiment. From donor mice with circa 30% parasitemia, heparinized blood was taken and diluted in physiological saline to 10^8 parasitized erythrocytes per ml. An aliquot (0.2 ml) of this suspension was injected i.v. into experimental and control groups of mice. In untreated control mice, parasitemia rose regularly to 40 to 50% by day 3 post-infection and 70 to 80% by day 4 post-infection. The mice died between days 5 and 7 post-infection. Throughout the experiments, mice were kept in groups of three or five animals in Makrolon type II cages in an air-conditioned animal room at 22 to 23° C. A diet with p-aminobenzoic acid (PABA) of 45 mg (NAFAG FUTTER© food N^o 9009 PAB-45) per kg of body weight, and tap water is available ad libitum.
OZ compounds were prepared at an appropriate concentration, either as a solution or a suspension containing SSV (0.5% w/v CMC, 0.5% v/v benzyl alcohol, 0.4% v/v Tween 80, and 0.9% w/v sodium chloride in water). They were administered per os (p.o.) in a total volume of 0.01 ml per gram of mouse. The activity of the compound was determined by a variety of methods outlined in subsequent sections. Survival time was also recorded, and survival to day 30 post-infection was considered to be a cure.
The second experiment consists of administration of divided 3×3 mg/kg and 3×1 mg/kg po doses administered on days 1, 2, and 3 post-infection. On day 4 post-infection, blood smears of all animals were prepared and stained with Giemsa. Parasitemia was determined microscopically, and the difference between the mean value of the control group (taken as 100%) and those of the experimental groups was calculated and expressed as percent reduction. Compounds were administered orally in the SSV vehicle.

[2] = tested on: Schistosoma mansoni adult schistosomes (49-day-old); assay: effect on adult schistosomes (49-day-old) in mice; assay type: in vivo; conditions: single 400 mg/kg per os
Experimental: Mice were infected with 100 Schistosoma mansoni cercariae […]. Each group was treated per os with OZ compounds at single doses of 200, 400, and 600 mg/kg. […] All groups were killed 4 weeks after treatment and the liver and intestine were removed and separated. The liver and intestine were compressed and alive male and female worms could be seen and counted.

[3] = tested on: P. falciparum K1 strain (Thailand resistant to chloroquine); assay: semiautomated microdilution assay, [3H]-hypoxanthine incorporation, K1 strain; assay type: cell-based, Plasmodium falciparum; conditions: K1 strain, 72 h incubation
Procedure, shortened: (§1)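 Asynchronous stock cultures → intraerythrocytic forms; semiautomated microdilution; IC50 by logit regression.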

[4] = tested on: P. falciparum NF54 strain (sensitive to standard antimalarials); assay: semiautomated microdilution assay, [3H]-hypoxanthine incorporation, NF54 strain; assay type: cell-based, Plasmodium falciparum; conditions: NF54 strain, 72 h incubation
Procedure, shortened: as §1

[5] = tested on: Schistosoma mansoni 21-day-old schistosomules; assay: effect on 21-day-old schistosomules in mice; assay type: in vivo; conditions: single 200 mg/kg per os, female mice
Experimental: All groups were killed 4 weeks after treatment and the liver and intestine were removed and separated. The liver and intestine were compressed and alive male and female worms could be seen and counted. The effect of the compounds was evaluated by mean total and female worm burden.

[6] = tested on: ANKA strain of P. berghei; assay: single dose STI in vivo screen in infected mice; parameters: species or system Plasmodium berghei; conditions: for Activity (%) 3 mg/kg SSV po / Activity (%) 10 mg/kg SSV po: percent reduction in parasitemia day 3 post-infection; for Activity (%) 3 mg/kg SSV po: single 3 mg/kg po in SSV
Procedure, shortened: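 Groups of 3-5 Moro SPF or NMRI mice infected with the ANKA strain of P. berghei received a single dose of trioxolane on day one post-infection. The compound was given in 3% ethanol and 7% Tween 80 or in SSV (0.5% w/v CMC, 0.5% v/v benzyl alcohol, 0.4% v/v Tween 80, 0.9% w/v sodium chloride in water). Antimalarial activity was scored as percent reduction in parasitemia on day three and as survival time versus untreated controls. Survival to day 30 counted as cure.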

[7] = 3 × 1 mg/kg days 1, 2, 3 post-infection
[8] = 3 × 3 mg/kg days 1, 2, 3 post-infection

Row | Structure (SMILES) | Survival (days) p.o. SSV [1, 7] | Activity (%) p.o. SSV [1, 7] | Survival (days) p.o. SSV [1, 8] | Activity (%) p.o. SSV [1, 8] | further results
1 | O=C1CN(C(=O)CC2CCC3(CC2)OOC2(O3)C3CC4CC(C3)CC2C4)CCN1 (stereo not shown) [compound 296] | 7.8 days | 49% | 9.4 days | 94% | –
2 | O=c1ccn(CC2CCC3(CC2)OOC2(O3)C3CC4CC(C3)CC2C4)cc1 (stereo not shown) [compound 302] | 13.4 days | 87% | 13.4 days | 99.51% | –
3 | CS(=O)(=O)O.O=C(O)CNCC1CCC2(CC1)OOC1(O2)C2CC3CC(C2)CC1C3 (stereo not shown) [compound 309] | 9.4 days | 66% | 9.2 days | 99% | –
4 | O=C(NC[C@H]1CC[C@]2(CC1)OO[C@]1(O2)C2CC3CC(C2)CC1C3)N1CCNCC1 [OZ329] | – | – | – | – | % reduction of adult worms growth at day 49 after per os application of 400 mg/kg, TWR (%) [2]: 15%; adult worms at day 49, per os 400 mg/kg, DEAD WORM (%) [2]: 6%; IC50 (ng/ml) K1 [3]: 0.43 ng/mL (≈ 1.06 nM); IC50 (ng/ml) NF54 [4]: 0.68 ng/mL (≈ 1.68 nM); % reduction of schistosomule growth at day 21 after per os application of 200 mg/kg, FWR (%) [5]: 90%; % reduction of schistosomule growth at day 21 after per os application of 200 mg/kg, TWR (%) [5]: 90%; activity (percent reduction of parasitemia) [1]: greater than 99%; infected mice cured [1]: ⅖
5 | Cc1ccc(S(=O)(=O)O)cc1.NCCNC(=O)CC1CCC2(CC1)OOC1(O2)C2CC3CC(C2)CC1C3 (stereo not shown) [compound 305] | 9.6 days | 87% | 12.2 days | 99.91% | –
6 | NS(=O)(=O)c1ccc(NCC2CCC3(CC2)OOC2(O3)C3CC4CC(C3)CC2C4)cc1 (stereo not shown) [compound 298] | 11 days | 93% | 16.4 days | 99.99% | –
7 | NCCC(=O)NC[C@H]1CC[C@]2(CC1)OO[C@]1(O2)C2CC3CC(C2)CC1C3 [OZ336] | – | – | – | – | Activity (%) 3 mg/kg SSV po [6]: 98%; Activity (%) 10 mg/kg SSV po ([6]; single 10 mg/kg po in SSV): 99.93%; Survival (days) 10 mg/kg SSV po ([6]; single 10 mg/kg po in SSV): 9.2 days; activity (percent reduction of parasitemia) [1]: greater than 99%
8 | c1cc(OC[C@H]2CC[C@]3(CC2)OO[C@]2(O3)C3CC4CC(C3)CC2C4)ccn1 [OZ301] | – | – | – | – | Activity (%) 3 mg/kg SSV po [6]: 97%; Activity (%) 10 mg/kg SSV po ([6]; single 10 mg/kg po in SSV): 100%; infected mice cured [1]: ⅕
9 | CS(=O)(=O)O.NCCOc1ccc(C2CCC3(CC2)OOC2(O3)C3CC4CC(C3)CC2C4)cc1 (stereo not shown) [compound 323] | 14.4 days | 66% | 14.4 days | 99.95% | –
10 | CS(=O)(=O)O.NC(=O)CCNCC1CCC2(CC1)OOC1(O2)C2CC3CC(C2)CC1C3 (stereo not shown) [compound 319] | 13 days | 92% | 11.2 days | 99.97% | –
